Experimental data: patent publication US20240180886A1, “INHIBITORS OF PROTEIN TYROSINE PHOSPHATASE, COMPOSITIONS, AND METHODS OF USE” (BRISTOL-MYERS SQUIBB COMPANY, priority 2022, published 2024)

Columns and labels:
PTPN2 [1] = target: T1, PTPN2 (Homo sapiens (Human), UniProt P17706); test: PhosphoSens assay (PTPN2 BCHEM); type: biochemical; details: substrate AQT0264 20 μM, PTPN2 150 pM
Description: A PhosphoSens® kinase assay was performed as described by the vendor (AssayQuant Technologies, Marlborough, MA). Briefly, 1000× solutions of compounds were prepared in DMSO via serial dilution of the 10 mM DMSO stocks using 3-fold intervals in a 384-well reagent plate. 50 nL of the compound dilution series was then added to the corresponding wells of a 384-well assay plate. […] Finally, […] of 5× PTPN2 enzyme stock was added to each well of the assay plate for a final enzyme concentration of 150 pM. Reaction progress curves were collected by sampling fluorescence intensity at the excitation wavelength 360 nm (λex360) and emission wavelength 480 nm (λem480) every 71 seconds for one hour using a Synergy H4 plate reader (BioTek Instruments/Agilent Technologies, Winooski, VT) at room temperature.
Target sequence in this assay (P17706 whole entry): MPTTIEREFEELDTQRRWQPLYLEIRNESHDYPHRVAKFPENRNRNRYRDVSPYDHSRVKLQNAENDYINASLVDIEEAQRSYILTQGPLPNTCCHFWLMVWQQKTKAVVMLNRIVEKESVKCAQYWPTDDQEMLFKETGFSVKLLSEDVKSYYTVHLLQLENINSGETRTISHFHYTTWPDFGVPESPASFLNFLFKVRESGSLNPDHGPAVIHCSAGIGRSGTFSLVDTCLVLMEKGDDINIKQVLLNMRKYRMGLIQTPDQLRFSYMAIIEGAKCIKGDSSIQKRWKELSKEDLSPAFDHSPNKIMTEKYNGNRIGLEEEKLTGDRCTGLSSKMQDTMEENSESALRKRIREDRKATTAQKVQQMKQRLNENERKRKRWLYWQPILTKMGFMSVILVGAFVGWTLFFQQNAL

PTPN2 [2] = target: T1, PTPN2; test: Phosphatase activity assay using DiFMUP as substrate; type: biochemical; details: PTPN2 0.15 nM, 10 mM DTT
Description: The PTPN2 biochemical assay was performed as follows, a 5× stock solution of human PTPN2 (SRP5075, MilliporeSigma, Burlington, MA) and a 1.25× stock solution of DiFMUP (D6567, ThermoFisher Scientific, Waltham, MA), were prepared in 1× reaction buffer consisting of 50 mM HEPES, pH 7.4, 1 mM EDTA, 150 mM NaCl, 0.2 mg/mL BSA, 100 U/mL catalase and 10 mM DTT. […] of the DiFMUP substrate solution, for a final concentration of […] DiFMUP substrate, was added to a Corning 3574 384-well, white, non-binding surface microtiter plate containing […] of serially diluted test compounds prepared in DMSO. The reactions were started with the addition of […] of the enzyme solution, for a final PTPN2 concentration of 0.15 nM, and monitored every 105 seconds for 60 minutes at λEX 360/λEM 460 in a BioTek Synergy HTX plate reader (Agilent Technologies, Santa Clara, CA) at room temperature. The initial linear portions of the progress curves were fit according to a linear equation to yield the slopes and converted to % inhibition based on a value of 100% activity for the no inhibitor treated control. IC50 values of each compound were obtained by fitting the % inhibition-compound concentration curves using Dotmatics software (Dotmatics, Bishops Stortford, Hertfordshire, England),
Target sequence in this assay (P17706 other isoform, or with tags, fused parts or gaps isoform P17706-2): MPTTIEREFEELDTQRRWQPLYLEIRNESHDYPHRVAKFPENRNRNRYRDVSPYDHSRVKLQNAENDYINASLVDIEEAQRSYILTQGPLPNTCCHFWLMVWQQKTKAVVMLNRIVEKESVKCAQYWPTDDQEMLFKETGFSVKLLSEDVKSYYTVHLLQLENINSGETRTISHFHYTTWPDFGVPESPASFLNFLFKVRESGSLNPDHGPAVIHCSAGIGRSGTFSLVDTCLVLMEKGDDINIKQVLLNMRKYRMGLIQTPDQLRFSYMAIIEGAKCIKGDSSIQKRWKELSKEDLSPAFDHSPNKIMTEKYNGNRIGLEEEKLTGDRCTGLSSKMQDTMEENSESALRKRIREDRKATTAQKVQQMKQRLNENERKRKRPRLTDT

[3] = tested on: phosphorylated STAT1 in B16-F10 cells; test: Phospho-STAT1 (Tyr701) HTRF assay in B16-F10 cells with IFN-gamma; type: cell-based; details: mouse IFN-gamma 100 ng/mL, 1 hour, read-out: pSTAT1 HTRF B16F10 EC50
Description: B16-F10 cells (ATCC, Manassas, VA, #CRL-6475) were cultured in DMEM growth medium (ThermoFisher Scientific, Waltham, MA, #11995-040) supplemented with 10% heat-inactivated FBS (ThermoFisher Scientific, #16140-071) and 1% pen/strep (ThermoFisher Scientific, #15140-122). The cells were seeded into a white opaque 384-well tissue culture treated microplate (PerkinElmer, Waltham, MA, #6007688) at a density of 10,000 cells/well in 20 uL total volume and incubated overnight at 37 C and 5% CO2. 30 nL of compounds dissolved in DMSO were then transferred from a source plate into target wells with the Echo650 acoustic liquid handler (Beckman Coulter, Indianapolis, IN). Negative control wells received 30 nL of DMSO only (0.15% final concentration). Plates were returned to the incubator for 1 hour and then cells were treated with either 5 uL of growth medium or 5 uL of growth medium containing 500 ng/mL of recombinant mouse IFN-gamma protein (R&D Systems, Minneapolis, MN, #485-MI/CF, 100 ng/mL final concentration) using the Assist automated pipetting platform (INTEGRA Biosciences, Hudson, NH). Plates were incubated at 37 C for 1 hour and assayed for phosphorylated STAT1 protein levels with the phospho-STAT1 (Tyr701) HTRF kit (Cisbio, Bedford, MA, #63ADK026PEH) according to the manufacturer's instructions.

B16-F10 cells = test: Cell proliferation assay (CellTiter-Glo) in B16-F10 cells with IFN-gamma; type: cell-based; details: 120 h, mouse IFN-gamma 10 ng/mL, read-out: PTPN2 Prolif 5d B16F10 EC50

SMILES | IC50 (PTPN2 [1]) | IC50 (PTPN2 [2]) | EC50 [3] | EC50 (B16-F10 cells)
Cc1cc(NCc2cc(O)c(N3CC(=O)NS3(=O)=O)c(F)c2)ncc1C#N [EXAMPLE 32, 6-[[3-fluoro-5-hydroxy-4-(1,1,4-trioxo-1,2,5-thiadiazolidin-2-yl)phenyl]methylamino]-4-methyl-pyridine-3-carbonitrile] | 30 nM | 50 nM | 2340 nM | 4550 nM
Cc1cnc(NCc2cc(O)c(N3CC(=O)NS3(=O)=O)c(F)c2)cc1F [EXAMPLE 33, 5-[2-fluoro-4-[[(4-fluoro-5-methyl-2-pyridyl)amino]methyl]-6-hydroxy-phenyl]-1,1-dioxo-1,2,5-thiadiazolidin-3-one] | 20 nM | 40 nM | 510 nM | 970 nM
COc1cccnc1NCc1cc(O)c(N2CC(=O)NS2(=O)=O)c(F)c1 [EXAMPLE 34, 5-[2-fluoro-6-hydroxy-4-[[(3-methoxy-2-pyridyl)amino]methyl]phenyl]-1,1-dioxo-1,2,5-thiadiazolidin-3-one] | > 10000 nM | 10000 nM | > 15000 nM | > 15000 nM
COc1cccc(NCc2cc(O)c(N3CC(=O)NS3(=O)=O)c(F)c2)n1 [EXAMPLE 35, 5-[2-fluoro-6-hydroxy-4-[[(6-methoxy-2-pyridyl)amino]methyl]phenyl]-1,1-dioxo-1,2,5-thiadiazolidin-3-one] | 80 nM | 20 nM | 11600 nM | 8660 nM
COc1ccc(NCc2cc(O)c(N3CC(=O)NS3(=O)=O)c(F)c2)nc1OC [EXAMPLE 36, 5-[4-[[(5,6-dimethoxy-2-pyridyl)amino]methyl]-2-fluoro-6-hydroxy-phenyl]-1,1-dioxo-1,2,5-thiadiazolidin-3-one] | 20 nM | 10 nM | 640 nM | 2180 nM
O=C1CN(c2c(O)cc(CNc3ccccn3)cc2F)S(=O)(=O)N1 [EXAMPLE 37, 5-[2-fluoro-6-hydroxy-4-[(2-pyridylamino)methyl]phenyl]-1,1-dioxo-1,2,5-thiadiazolidin-3-one] | 30 nM | 70 nM | 450 nM | 1260 nM
O=C1CN(c2c(O)cc(CNc3ccc(OCc4ccccc4)cn3)cc2F)S(=O)(=O)N1 [EXAMPLE 47, 5-[4-[[(5-benzyloxy-2-pyridyl)amino]methyl]-2-fluoro-6-hydroxy-phenyl]-1,1-dioxo-1,2,5-thiadiazolidin-3-one] | 40 nM | 1460 nM | 6360 nM | 13300 nM
O=C1CN(c2c(O)cc(CN(c3ccc(C(F)(F)F)cn3)C3CC3)cc2F)S(=O)(=O)N1 [EXAMPLE 50, 5-(4-((cyclopropyl(5-(trifluoromethyl)pyridin-2-yl)amino)methyl)-2-fluoro-6-hydroxyphenyl)-1,2,5-thiadiazolidin-3-one 1,1-dioxide] | 816 nM | 3240 nM | > 15000 nM | > 15000 nM

Now those with a lower IC50 (PTPN2 [1]), led by results:

IC50 (PTPN2 [1]) | IC50 (PTPN2 [2]) | EC50 [3] | EC50 (B16-F10 cells) | SMILES
10 nM | 60 nM | 540 nM | 850 nM | COc1ccc(NCc2cc(O)c(N3CC(=O)NS3(=O)=O)c(F)c2)nc1 [EXAMPLE 38, 5-[2-fluoro-6-hydroxy-4-[[(5-methoxy-2-pyridyl)amino]methyl]phenyl]-1,1-dioxo-1,2,5-thiadiazolidin-3-one]
7 nM | 60 nM | 1490 nM | 1770 nM | CC(C)c1ccc(NCc2cc(O)c(N3CC(=O)NS3(=O)=O)c(F)c2)nc1 [EXAMPLE 45, 5-[2-fluoro-6-hydroxy-4-[[(5-isopropyl-2-pyridyl)amino]methyl]phenyl]-1,1-dioxo-1,2,5-thiadiazolidin-3-one]
6 nM | 10 nM | 4100 nM | 3510 nM | O=C1CN(c2c(O)cc(CNc3cc(OCc4ccccc4)ccn3)cc2F)S(=O)(=O)N1 [EXAMPLE 46, 5-[4-[[(4-benzyloxy-2-pyridyl)amino]methyl]-2-fluoro-6-hydroxy-phenyl]-1,1-dioxo-1,2,5-thiadiazolidin-3-one]
